Measured values reported in article PMC11317573 (Proceedings of the National Academy of Sciences of the …, 2024).

Target: T1, RdsA (YhiN) (Escherichia coli, UniProt P37631)
T1 sequence (P37631 1-400): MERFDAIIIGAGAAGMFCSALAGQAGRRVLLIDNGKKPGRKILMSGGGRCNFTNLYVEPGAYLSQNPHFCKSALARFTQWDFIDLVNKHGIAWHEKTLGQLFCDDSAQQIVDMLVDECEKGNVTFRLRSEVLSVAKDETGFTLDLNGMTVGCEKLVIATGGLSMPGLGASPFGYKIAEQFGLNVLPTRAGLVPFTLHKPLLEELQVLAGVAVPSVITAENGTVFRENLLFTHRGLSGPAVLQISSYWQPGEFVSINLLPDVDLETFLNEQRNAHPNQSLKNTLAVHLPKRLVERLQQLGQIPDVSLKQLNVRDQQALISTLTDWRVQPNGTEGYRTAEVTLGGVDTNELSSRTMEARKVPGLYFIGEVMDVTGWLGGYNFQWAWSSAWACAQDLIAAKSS
Test: UV/visible spectrum of purified protein
Type: binding
Details: as purified; noncovalent

## Cc1cc2nc3c(=O)[nH]c(=O)nc-3n(C[C@H](O)[C@H](O)[C@H](O)COP(=O)(O)OP(=O)(O)OC[C@H]3O[C@@H](n4cnc5c(N)ncnc54)[C@H](O)[C@@H]3O)c2cc1C [FAD]
  holoprotein fraction (oxidized flavin): 61%
